# Test results: PubChem BioAssay (NCI)
# “And” between values parts separate entries of the source, which are not always exact repeats. Equal values may be shown once.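 Assay format: 96-well plates, 48-hour exposure. GI50 = concentration required for 50% inhibition of growth. TGI: total growth inhibition.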
# Experiments:
# Assay in all cases: DTP human tumour cell line panel, 48 h
# MCF7 breast = tested on: MCF7 breast
# 786-0 renal = tested on: 786-0 renal
# T-47D breast = tested on: T-47D breast
# RXF 393 renal = tested on: RXF 393 renal
# EKVX NSCLC = tested on: EKVX NSCLC
# MDA-MB-231 breast = tested on: MDA-MB-231 breast
# UO-31 renal = tested on: UO-31 renal
# A498 renal = tested on: A498 renal
# CAKI-1 renal = tested on: CAKI-1 renal
# NCI-H226 lung = tested on: NCI-H226 lung
Compound,GI50 (MCF7 breast),TGI (MCF7 breast),GI50 (786-0 renal),TGI (786-0 renal),GI50 (T-47D breast),TGI (T-47D breast),GI50 (RXF 393 renal),TGI (RXF 393 renal),GI50 (EKVX NSCLC),TGI (EKVX NSCLC),GI50 (MDA-MB-231 breast),TGI (MDA-MB-231 breast),GI50 (UO-31 renal),TGI (UO-31 renal),GI50 (A498 renal),TGI (A498 renal),GI50 (CAKI-1 renal),TGI (CAKI-1 renal),GI50 (NCI-H226 lung),TGI (NCI-H226 lung)
CN(C)CCOc1nc2c3cccnc3cc(-c3cccc(Cl)c3)c2c2ncccc12,1.28 µM,2.68 µM,1.45 µM,2.84 µM,2.16 µM,6.39 µM,1.39 µM,2.8 µM,1.7 µM,4.62 µM,1.5 µM,3.53 µM,1.09 µM,2.73 µM,2.6 µM,10.8 µM,1.1 µM,2.92 µM,6.09 µM,24.6 µM
CS(=O)c1ccc(-c2nc(-c3ccc(F)cc3)c(-c3ccncc3)[nH]2)cc1 (centres undefined),33.6 µM,> 100 µM,16.8 µM,38.8 µM,18 µM,> 100 µM,15.7 µM,39.3 µM,49 µM,> 100 µM,48.4 µM,> 100 µM,20.1 µM,> 79.6 µM,10.6 µM,53.5 µM,21.6 µM,> 81.9 µM,24.7 µM,> 73.1 µM
O=[N+]([O-])c1cc(Cl)cc2c1nc(NCCO)c1ccccc12,,> 72.4 µM,,> 100 µM,,> 100 µM,,19.3 µM,,> 100 µM,,> 100 µM,,> 100 µM,,56.4 µM,,> 100 µM,,> 80.2 µM
CS(=O)(=O)OCCN(CCOS(C)(=O)=O)c1ccc(C=Nc2ccc3oc(=O)ccc3c2)cc1,,> 93.5 µM,,3.5 µM,,72.8 µM,,1.89 µM,,36.5 µM,,80.8 µM,,2.96 µM,,4.67 µM,,9.11 µM,,21.9 µM
Oc1ccc(/C=N/Nc2nc3ccccc3s2)c(O)c1,1.65 µM,9.39 µM,3.68 µM,53.8 µM,3.37 µM,> 100 µM,3.36 µM,> 100 µM,2.86 µM,> 100 µM,1.69 µM,12.9 µM,0.341 µM,4.23 µM,4.16 µM,36.8 µM,1.07 µM,15.7 µM,3.56 µM,65.9 µM
COc1cc(/C=C2\CC3C4CC=C5C[C@@H](N6CCCC6)CC[C@]5(C)C4CC[C@]3(C)[C@H]2OC(C)=O)ccc1OCCN1CCCCC1 (some centres undefined),3.02 µM,> 100 µM,0.217 µM,1.89 µM,2.25 µM,3.98 µM,1.63 µM,3.64 µM,1.99 µM,4.3 µM,2.27 µM,4.1 µM,1.46 µM,2.83 µM,1.76 µM,3.41 µM,1.95 µM,3.95 µM,2.14 µM,4.21 µM
O=C(Nc1cccc2cccnc12)c1ccc(N2C(=O)[C@@H]3[C@H](C2=O)[C@@H]2C=C[C@H]3C2)cc1,25.1 µM,> 100 µM,> 74.2 µM,> 100 µM,20.2 µM,> 79.3 µM,30.8 µM,> 100 µM,32.2 µM,> 100 µM,33.2 µM,> 100 µM,3.1 µM,> 100 µM,14.5 µM,> 93.2 µM,21 µM,> 100 µM,19.8 µM,> 88.6 µM
CCCCN(CCCC)CC(C)(C)C(O)c1ccc(OC)c2ccccc12 (centres undefined),3.55 µM,15.4 µM,10 µM,28 µM,3.77 µM,17 µM,1.5 µM,4.51 µM,4.24 µM,22.9 µM,6.76 µM,21.9 µM,3.02 µM,17.4 µM,4.27 µM,22.9 µM,3.06 µM,16 µM,2.42 µM,9.24 µM
COc1cccc(Cn2cc3c(c2)-c2oncc2CC3)c1,0.378 µM,> 100 µM,1.98 µM,> 100 µM,0.246 µM,6.38 µM,0.368 µM,,0.508 µM,> 77 µM,0.636 µM,96.8 µM,0.671 µM,43.7 µM,0.239 µM,1.19 µM,0.354 µM,> 84.8 µM,2.72 µM,> 100 µM
CCCCCC(=O)OCC(=O)O[C@@H]1C[C@]2(C(C)C)O[C@@]1(C)[C@@H]1CC[C@@H](C)[C@H]1[C@@H]2OC(=O)/C=C/c1ccccc1,> 32.9 µM,> 100 µM,0.789 µM,13.6 µM,10 µM,> 92.7 µM,0.127 µM,> 6.51 µM,> 54.5 µM,> 100 µM,> 57.5 µM,> 80.5 µM,0.0408 µM,0.254 µM,0.0525 µM,0.306 µM,0.0329 µM,0.221 µM,50.6 µM,> 100 µM
O=C1C=CN(C2OC(CO)C(O)C2O)C(=O)C1 (centres undefined),4.63 µM,625 µM and > 2500 µM,,1260 µM,,> 1750 µM,514 µM,625 µM and > 2500 µM,,> 2500 µM,,> 2500 µM,26.7 µM,625 µM and > 2500 µM,,> 2500 µM,17.3 µM,296 µM and 1010 µM,> 625 µM,> 2500 µM
O=C(Nc1cccc(C(F)(F)F)c1)c1cccc(NC2=C(Cl)C(=O)N(Cc3ccccc3)C2=O)c1,3.28 µM,> 100 µM,27.4 µM,> 100 µM,6.28 µM,89.9 µM,2.39 µM,9.29 µM,68.5 µM,> 100 µM,5.38 µM,> 100 µM,11.7 µM,> 100 µM,40.3 µM,90.7 µM,6.5 µM,> 100 µM,4.51 µM,65.5 µM
CC1CCCN(CC(O)CN2CCCc3ccccc32)C1 (centres undefined),,> 100 µM,,> 100 µM,,> 100 µM,,> 100 µM,,> 100 µM,,> 100 µM,,> 100 µM,,> 100 µM,,> 100 µM,,> 100 µM
CCOC(=O)CNC(=O)CCCn1c(=O)c2c3ccccc3n(C)c2n2nnc(-c3ccccc3)c12,31.3 µM,> 50 µM,5.13 µM,17.4 µM,43.9 µM,> 50 µM,1.33 µM,4.41 µM,20.5 µM,> 50 µM,14.7 µM,31 µM,47.8 µM,> 50 µM,7.29 µM,24.6 µM,8.37 µM,20 µM,25.1 µM,> 50 µM
NC(N)=N/N=C/c1cccc(Cl)c1Cl,2.09 µM,5.03 µM,11.1 µM,24.7 µM,1.54 µM,3.64 µM,4.75 µM,18.3 µM,9.02 µM,24.2 µM,3.63 µM,14.7 µM,10.1 µM,22.7 µM,11.1 µM,25.6 µM,6.62 µM,21.8 µM,13.6 µM,29.2 µM
O=C1NC(=O)C2(CCC(O)C2)c2cc[n+]([O-])cc21 (centres undefined),,> 100 µM,,> 100 µM,,> 100 µM,,> 100 µM,,> 100 µM,,> 100 µM,,> 100 µM,,> 100 µM,,> 100 µM,,> 100 µM
COc1ccc2c(c1OC)-c1c(c3ccc([N+](=O)[O-])cc3c(=O)n1CCCN=[N+]=[N-])C2=O,11.2 µM,> 100 µM,3.44 µM,15.8 µM,5.29 µM,> 100 µM,10.1 µM,> 100 µM,> 100 µM,> 100 µM,> 100 µM,> 100 µM,3.5 µM,> 100 µM,82.3 µM,> 100 µM,2.55 µM,9.73 µM,22.8 µM,99.3 µM
BrC(Br)(Br)c1cnc2ccccc2n1,1.53 µM,5.42 µM,2.02 µM,5 µM,1.33 µM,3.31 µM,1.06 µM,2.4 µM,2.99 µM,13.2 µM,1.39 µM,3.22 µM,0.793 µM,2.39 µM,9 µM,21.2 µM,1.52 µM,4.41 µM,3.91 µM,8.38 µM
Cc1ccc(C2SCc3nc4ccc(C(=O)c5ccccc5)cc4n32)cc1 (centres undefined),11.9 µM,> 76.7 µM,13.3 µM,42.2 µM,14 µM,> 63.5 µM,21.4 µM,70.3 µM,21.8 µM,> 100 µM,3.66 µM,19.4 µM,17 µM,54.9 µM,13.5 µM,36.3 µM,0.457 µM,4.26 µM,15.3 µM,62.3 µM
CC1CCC2C(C)C3C(CC4C5CC=C6CC(OC7OC(CO)C(O)C(OC8OC(CO)C(O)C(O)C8O)C7OC7OC(C)C(O)C(O)C7O)CCC6(C)C5CCC43C)N2C1 (centres undefined),> 2.5 µg/mL,29.1 µM and > 2.5 µg/mL,> 2.5 µg/mL,20.4 µM and > 2.5 µg/mL,> 2.5 µg/mL,45 µM and > 2.5 µg/mL,> 2.5 µg/mL,22.3 µM and > 2.5 µg/mL,> 2.5 µg/mL,21.9 µM and > 2.5 µg/mL,> 2.5 µg/mL,27.8 µM and > 2.5 µg/mL,> 2.5 µg/mL,14.5 µM and > 2.5 µg/mL,> 2.5 µg/mL,31.7 µM and > 2.5 µg/mL,> 2.5 µg/mL,25.1 µM and > 2.5 µg/mL,> 2.5 µg/mL,44.3 µM and > 2.5 µg/mL
O=C(O)c1ccc(-c2ccc(C(=O)O)cc2I)c(I)c1,> 100 µM,> 100 µM,> 100 µM,> 100 µM,> 100 µM,> 100 µM,> 100 µM,> 100 µM,> 100 µM,> 100 µM,> 100 µM,> 100 µM,> 100 µM,> 100 µM,> 100 µM,> 100 µM,> 100 µM,> 100 µM,> 100 µM,> 100 µM
Cc1c2ncccc2nc2[nH]c3ccc(OCCN(C)C)cc3c12,0.305 µM,6.04 µM,2.81 µM,16.1 µM,2.8 µM,> 100 µM,2.89 µM,9.92 µM,2.9 µM,21.2 µM,2.5 µM,16 µM,1.84 µM,11.5 µM,5.18 µM,20 µM,3.61 µM,21.3 µM,5.05 µM,21.5 µM
CCCCCCCCCCCCOC1C(C(COC2OC(C(O)CN3CCCCC3)C3OC(C)(C)OC23)NC(=O)Nc2ccccc2)OC2OC(C)(C)OC21 (centres undefined),3.16 µM,10.6 µM,14.1 µM,30.5 µM,14.5 µM,37.8 µM,6.03 µM,26.1 µM,14.4 µM,30.2 µM,12.8 µM,27.4 µM,10.3 µM,28.2 µM,16.9 µM,32.7 µM,17.7 µM,35.7 µM,17 µM,38.1 µM
CCn1c(-c2nonc2N)nc2c(C#CC(C)(C)O)nc(O[C@@H](CN)c3ccccc3)cc21,0.055 µM,2.58 µM,0.16 µM,2.49 µM,0.016 µM,2.34 µM,0.0338 µM,0.394 µM,0.982 µM,9.38 µM,0.528 µM,2.65 µM,3.52 µM,7.37 µM,0.00553 µM,0.171 µM,3.7 µM,12.3 µM,0.624 µM,1.57 µM
